Reference: ChEMBL document CHEMBL5465560, “Selectivity Literature for EUbOPEN Chemogenomic Library” (2024)
Changes are numbered by the printed parent chain.

Key:
Details in all cases: at 10 µM
[1] = system: T1, Receptor-type tyrosine-protein kinase FLT3 (Homo sapiens), P36888 [D835Y]; assay: (§1) Selectivity interaction (KinomeScan (DiscoverX)) EUB0000092b FLT3
T1 sequence (whole entry): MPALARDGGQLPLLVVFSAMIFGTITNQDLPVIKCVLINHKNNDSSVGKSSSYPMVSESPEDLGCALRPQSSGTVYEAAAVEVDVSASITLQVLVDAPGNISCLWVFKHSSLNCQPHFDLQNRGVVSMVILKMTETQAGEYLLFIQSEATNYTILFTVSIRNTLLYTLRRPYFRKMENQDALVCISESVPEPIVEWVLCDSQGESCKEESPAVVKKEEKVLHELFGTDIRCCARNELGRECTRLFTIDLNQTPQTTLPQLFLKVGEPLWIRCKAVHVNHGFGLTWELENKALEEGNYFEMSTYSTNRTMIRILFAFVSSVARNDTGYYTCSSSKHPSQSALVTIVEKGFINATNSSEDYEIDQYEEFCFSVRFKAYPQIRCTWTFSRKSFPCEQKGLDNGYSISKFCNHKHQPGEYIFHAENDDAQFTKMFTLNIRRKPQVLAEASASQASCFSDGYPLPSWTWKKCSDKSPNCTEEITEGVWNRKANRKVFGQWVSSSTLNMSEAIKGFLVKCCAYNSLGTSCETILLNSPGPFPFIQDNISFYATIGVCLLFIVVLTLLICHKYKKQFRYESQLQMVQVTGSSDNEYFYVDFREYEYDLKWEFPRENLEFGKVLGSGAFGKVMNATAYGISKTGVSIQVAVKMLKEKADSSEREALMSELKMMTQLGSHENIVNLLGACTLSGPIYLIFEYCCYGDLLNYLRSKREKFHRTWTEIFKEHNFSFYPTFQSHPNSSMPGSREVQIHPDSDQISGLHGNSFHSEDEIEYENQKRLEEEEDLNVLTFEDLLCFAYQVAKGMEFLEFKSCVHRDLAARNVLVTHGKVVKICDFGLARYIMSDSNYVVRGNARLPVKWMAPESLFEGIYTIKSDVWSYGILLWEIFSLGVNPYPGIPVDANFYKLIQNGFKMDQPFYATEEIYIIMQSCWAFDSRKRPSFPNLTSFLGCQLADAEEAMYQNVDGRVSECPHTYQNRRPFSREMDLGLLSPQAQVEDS

[2] = system: T2, Receptor-type tyrosine-protein kinase FLT3 (Homo sapiens), P36888 [K663Q]; assay: as §1
T2 sequence (whole entry): T1 sequence (whole entry) with K663Q, Y835D

[3] = system: Receptor-type tyrosine-protein kinase FLT3 (Homo sapiens), P36888 [UNDEFINED MUTATION]; assay: as §1
[4] = biological target: Receptor-type tyrosine-protein kinase FLT3 (Homo sapiens) (UniProt P36888); assay: as §1
[5] = system: T3, Receptor-type tyrosine-protein kinase FLT3 (Homo sapiens), P36888 [D835H]; assay: as §1
T3 sequence (whole entry): T1 sequence (whole entry) with Y835H

Compound CCC(=O)N1CCN(c2ccc(-n3c(=O)ccc4cnc5ccc(-c6cnc7ccccc7c6)cc5c43)cc2C(F)(F)F)CC1 has a % of control [1] of 16%, a % of control [2] of 23% and a % of control [3] of 29%. It also gave a % of control [4] of 16% and a % of control [5] of 18%.
